Experimental data reported in ChEMBL document CHEMBL1130882, “C-alkylated spiro[benzofuran-3(2H),4'-1'-methyl-piperidine-7-ols] as potent opioids: a conformation-activity study” (Bioorg Med Chem Lett, 1998).

Legend:
Mu-type opioid receptor = Mu-type opioid receptor (Cavia porcellus, UniProt P97266); assay: Binding affinity against mu opioid receptor was determined in brain membrane preparations from male Hartley guinea-pigs; assay type: cell membranes
[1] = target: Kappa-type opioid receptor (Cavia porcellus, UniProt P41144); assay: Binding affinity against Opioid receptor kappa 1 was determined in brain membrane preparations from male Hartley guinea-pigs; assay type: cell membranes
Sequence of Kappa-type opioid receptor (P41144 whole entry): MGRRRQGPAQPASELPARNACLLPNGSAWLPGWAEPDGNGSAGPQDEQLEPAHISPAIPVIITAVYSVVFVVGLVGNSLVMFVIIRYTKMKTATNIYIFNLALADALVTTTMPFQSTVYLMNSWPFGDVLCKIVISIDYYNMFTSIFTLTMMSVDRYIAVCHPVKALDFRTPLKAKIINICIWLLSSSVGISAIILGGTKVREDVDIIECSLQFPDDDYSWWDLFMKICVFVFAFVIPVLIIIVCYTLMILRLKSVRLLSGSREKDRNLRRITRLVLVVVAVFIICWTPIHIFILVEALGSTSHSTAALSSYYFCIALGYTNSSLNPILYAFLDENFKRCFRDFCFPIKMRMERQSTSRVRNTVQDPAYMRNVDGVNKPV

Sequence of Mu-type opioid receptor (P97266 whole entry): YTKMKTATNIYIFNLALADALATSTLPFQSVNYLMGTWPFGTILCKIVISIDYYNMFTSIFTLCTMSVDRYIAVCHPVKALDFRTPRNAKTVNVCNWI

| Compound | Ki (Mu-type opioid receptor) [nM] | Ki [1] [µM] |
| --- | --- | --- |
| CN1CCC2(CC1)COc1c(O)cccc12 | 1650 | > 100 |
| CCC1Oc2c(O)cccc2C12CCN(C)CC2 (racemic) | 102 | > 100 |
| CC1Oc2c(O)cccc2C12CCN(C)CC2 (racemic) | 124 | > 100 |
| CC1CN(C)CCC12COc1c(O)cccc12 (racemic; form 1) | 54 | 0.177 |
| CC1CN(C)CCC12COc1c(O)cccc12 (racemic; form 2) | 1020 | 0.505 |
| CCOC(=O)C1(c2ccccc2)CCN(C)CC1 [MEPERIDINE] | – | > 100 |
